# What was measured:
# Type in all cases: cell-based, mouse
# [1] = test system: Hedgehog Signaling Pathway; assay: SAG-induced differentiation of C3H10T1/2 cells into osteoblastic cells, intracellular alkaline phosphatase activity; details: Mus musculus, C3H 10T1/2, 120 h, 1 μM SAG, 5 days, alkaline phosphatase activity (OD405), read-out: IC50 values of compounds that inhibit Hh pathway
# Summary of the method: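 Mouse C3H10T1/2 cells were induced with SAG and exposed to compound (10 μM to 1 nM) for 5 days at 37 °C. Cells were lysed in 0.2% Triton, and alkaline phosphatase activity was read as OD405 over 30 min at 37 °C in pH 9.8 substrate buffer. IC50 came from a non-linear fit of background-subtracted OD405 against log concentration.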
# [2] = test system: Hedgehog Signaling Pathway; assay: SHH-induced differentiation of C3H10T1/2 cells into osteoblastic cells, intracellular alkaline phosphatase activity; details: 10 nM SHH-N, 5 days, alkaline phosphatase activity (OD405), read-out: IC50 values of compounds that inhibit Hh pathway
# Summary of the method: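 Mouse C3H10T1/2 cells were induced with 10 nM SHH-N alongside test compound (10 μM–10 nM) for 5 days at 37 °C. Cells were lysed in 0.2% Triton, and alkaline phosphatase activity was read at OD405 over 30 min at 37 °C with the background reading subtracted. IC50 came from a nonlinear fit against log concentration.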
# [3] = test system: Hedgehog Signaling Pathway; assay: Gli-Luc reporter gene cell assay in C3H10T1/2/Gli-Luc cells stimulated with Shh; details: Mus musculus, C3H 10T1/2, 24 h, 30 nM Shh, luciferase activity (RLU), read-out: IC50 values of compounds that inhibit Hh pathway
# Summary of the method: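 C3H10T1/2 cells stably carrying Gli-responsive luciferase were seeded overnight, then treated 24 h at 37 °C with compound (7-point dilution series, DMSO control) plus Shh (30 nM in added medium). Lysate luciferase RLU fitted against log concentration to derive IC50.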
# [4] = Mus musculus, C3H 10T1/2, 120 h
IC50 [1],"IC50 [2, 4]",IC50 [3],IC50 [2],SMILES
106 nM,5 nM,3.3 nM,,"C[C@@H]1CN(c2ccc(C(=O)Nc3ccc(Cl)c(-c4nc5ccc(Cl)cc5[nH]4)c3)c(Cl)c2)C[C@H](C)N1C [Example 96, N-(3-(6-chloro-1H-benzo[d]imidazol-2-yl)-4-chlorophenyl)-2-chloro-4-((3S,5R)-3,4,5-trimethylpiperazin-1-yl)benzamide]"
32 nM,0.59 nM,1.7 nM,,"Cc1cc(N2C[C@@H](C)N(C)[C@@H](C)C2)ccc1C(=O)Nc1ccc(Cl)c(-c2nc3ccc(Cl)cc3[nH]2)c1 [Example 97, N-(3-(6-chloro-1H-benzo[d]imidazol-2-yl)-4-chlorophenyl)-2-methyl-4-((3S,5R)-3,4,5-trimethylpiperazin-1-yl)benzamide]"
24 nM,1.4 nM,0.96 nM,,"Cc1cc(N2C[C@@H](C)N(C)[C@@H](C)C2)ccc1C(=O)Nc1ccc(Cl)c(-c2nc3ccc(F)cc3[nH]2)c1 [Example 98, N-(3-(6-fluoro-1H-benzo[d]imidazol-2-yl)-4-chlorophenyl)-2-methyl-4-((3S,5R)-3,4,5-trimethylpiperazin-1-yl)benzamide]"
81 nM,,1.6 nM,2.6 nM,"C[C@@H]1CN(c2ccc(C(=O)Nc3ccc(Cl)c(-c4nc5ccc(F)cc5[nH]4)c3)c(Cl)c2)C[C@H](C)N1C [Example 99, N-(3-(6-fluoro-1H-benzo[d]imidazol-2-yl)-4-chlorophenyl)-2-chloro-4-((3S,5R)-3,4,5-trimethylpiperazin-1-yl)benzamide]"
33 nM,2.3 nM,0.58 nM,,"CCN1[C@H](C)CN(c2ccc(C(=O)Nc3ccc(Cl)c(-c4nc5ccccc5[nH]4)c3)c(C)c2)C[C@@H]1C [Example 100, N-(3-(1H-benzo[d]imidazol-2-yl)-4-chlorophenyl)-2-methyl-4-((3S,5R)-4-ethyl-3,5-dimethylpiperazin-1-yl)benzamide]"
46 nM,0.64 nM,0.67 nM,,"Cc1cc(N2C[C@@H](C)N(C(C)C)[C@@H](C)C2)ccc1C(=O)Nc1ccc(Cl)c(-c2nc3ccccc3[nH]2)c1 [Example 101, N-(3-(1H-benzo[d]imidazol-2-yl)-4-chlorophenyl)-2-methyl-4-((3S,5R)-4-isopropyl-3,5-dimethylpiperazin-1-yl)benzamide]"
449 nM,40 nM,9.4 nM,,"CN1CCN(c2ccc(C(=O)Nc3ccc(Cl)c(-c4nc5ccccc5[nH]4)c3)cn2)CC1 [Example 103, N-(3-(1H-benzo[d]imidazol-2-yl)-4-chlorophenyl)-6-(4-methylpiperazin-1-yl)nicotinamide]"
58 nM,0.61 nM,0.94 nM,,"C[C@@H]1CN(c2ccc(C(=O)Nc3ccc(Cl)c(-c4nc5ccccc5[nH]4)c3)cn2)C[C@H](C)N1C [Example 104, N-(3-(1H-benzo[d]imidazol-2-yl)-4-chlorophenyl)-6-((3S,5R)-3,4,5-trimethylpiperazin-1-yl)nicotinamide]"
58 nM,2.2 nM,1.1 nM,,"CCN1[C@H](C)CN(c2ccc(C(=O)Nc3ccc(Cl)c(-c4nc5ccccc5[nH]4)c3)cn2)C[C@@H]1C [Example 105, N-(3-(1H-benzo[d]imidazol-2-yl)-4-chlorophenyl)-6-((3S,5R)-4-ethyl-3,5-dimethylpiperazin-1-yl)nicotinamide]"
47 nM,2.3 nM,0.75 nM,,"Cc1cc(N2C[C@@H](C)N(C)[C@@H](C)C2)ncc1C(=O)Nc1ccc(Cl)c(-c2nc3ccccc3[nH]2)c1 [Example 107, N-(3-(1H-benzo[d]imidazol-2-yl)-4-chlorophenyl)-4-methyl-6-((3S,5R)-3,4,5-trimethylpiperazin-1-yl)nicotinamide]"
96 nM,6.4 nM,3.8 nM,,"Cc1cc(N2C[C@@H](C)N[C@@H](C)C2)ccc1C(=O)Nc1ccc(Cl)c(-c2nc3ccccc3[nH]2)c1 [Example 109, N-(3-(1H-benzo[d]imidazol-2-yl)-4-chlorophenyl)-2-methyl-4-((3S,5R)-3,5-dimethylpiperazin-1-yl)benzamide]"
28 nM,0.66 nM,0.57 nM,,"C[C@@H]1CN(c2ccc(C(=O)Nc3ccc(Cl)c(-c4nc5ccccc5n4C)c3)c(Cl)c2)C[C@H](C)N1C [Example 110, N-(3-(1-methyl-1H-benzo[d]imidazol-2-yl)-4-chlorophenyl)-2-chloro-4-((3S,5R)-3,4,5-trimethylpiperazin-1-yl)benzamide]"
68 nM,0.94 nM,2.2 nM,,"Cc1ccc2nc(-c3cc(NC(=O)c4ccc(N5C[C@@H](C)N(C)[C@@H](C)C5)cc4Cl)ccc3Cl)[nH]c2c1 [Example 111, N-(3-(6-methyl-1H-benzo[d]imidazol-2-yl)-4-chlorophenyl)-2-chloro-4-((3S,5R)-3,4,5-trimethylpiperazin-1-yl)benzamide]"
83 nM,8.6 nM,5.5 nM,,"Cc1ccc2nc(-c3cc(NC(=O)c4ccc(N5C[C@@H](C)N(C)[C@@H](C)C5)cc4C)ccc3Cl)[nH]c2c1 [Example 112, N-(3-(6-methyl-1H-benzo[d]imidazol-2-yl)-4-chlorophenyl)-2-methyl-4-((3S,5R)-3,4,5-trimethylpiperazin-1-yl)benzamide]"
1040 nM,> 10000 nM,27 nM,,"Cc1ccc(NC(=O)c2ccc(N3C[C@@H](C)N(C)[C@@H](C)C3)cc2Cl)cc1-c1nc2ccc(Cl)cc2[nH]1 [Example 113, N-(3-(6-chloro-1H-benzo[d]imidazol-2-yl)-4-methylphenyl)-2-chloro-4-((3S,5R)-3,4,5-trimethylpiperazin-1-yl)benzamide]"
77 nM,9 nM,0.85 nM,,"CCN1[C@H](C)CN(c2ccc(C(=O)Nc3ccc(Cl)c(-c4nc5ccc(F)cc5[nH]4)c3)c(Cl)c2)C[C@@H]1C [Example 114, N-(3-(6-fluoro-1H-benzo[d]imidazol-2-yl)-4-chlorophenyl)-2-chloro-4-((3S,5R)-4-ethyl-3,5-dimethylpiperazin-1-yl)benzamide]"
145 nM,31 nM,3.4 nM,,"Cc1ccc(NC(=O)c2ccc(N3C[C@@H](C)N(C)[C@@H](C)C3)cc2Cl)cc1-c1nc2ccc(F)cc2[nH]1 [Example 115, N-(3-(6-fluoro-1H-benzo[d]imidazol-2-yl)-4-methylphenyl)-2-chloro-4-((3S,5R)-3,4,5-trimethylpiperazin-1-yl)benzamide]"
68 nM,2.1 nM,1.4 nM,,"Cc1nc(N2C[C@@H](C)N(C)[C@@H](C)C2)ccc1C(=O)Nc1ccc(Cl)c(-c2nc3ccccc3[nH]2)c1 [Example 116, N-(3-(1H-benzo[d]imidazol-2-yl)-4-chlorophenyl)-2-methyl-6-((3S,5R)-3,4,5-trimethylpiperazin-1-yl)nicotinamide]"
27 nM,4.6 nM,1.2 nM,,"C[C@@H]1CN(c2ccc(C(=O)Nc3ccc(Cl)c(-c4nc5ccccc5[nH]4)c3)c(Cl)n2)C[C@H](C)N1C [Example 117, N-(3-(1H-benzo[d]imidazol-2-yl)-4-chlorophenyl)-2-chloro-6-((3S,5R)-3,4,5-trimethylpiperazin-1-yl)nicotinamide]"
260 nM,13 nM,5.1 nM,,"C[C@@H]1CN(c2ccc(C(=O)Nc3ccc(Cl)c(-c4nc5ccccc5[nH]4)c3)cc2)C[C@H](C)N1C [Example 118, N-(3-(1H-benzo[d]imidazol-2-yl)-4-chlorophenyl)-4-((3S,5R)-3,4,5-trimethylpiperazin-1-yl)benzamide]"
39 nM,0.76 nM,0.45 nM,,"C[C@@H]1CN(c2ccc(C(=O)Nc3ccc(Cl)c(-c4nc5ccccc5[nH]4)c3)c(C(F)(F)F)c2)C[C@H](C)N1C [Example 119, N-(3-(1H-benzo[d]imidazol-2-yl)-4-chlorophenyl)-2-(trifluoromethyl)-4-((3S,5R)-3,4,5-trimethylpiperazin-1-yl)benzamide]"
57 nM,7.4 nM,1.7 nM,,"C[C@@H]1CN(c2ccc(C(=O)Nc3ccc(Cl)c(-c4nc5ccccc5[nH]4)c3)cc2Cl)C[C@H](C)N1C [Example 120, N-(3-(1H-benzo[d]imidazol-2-yl)-4-chlorophenyl)-3-chloro-4-((3S,5R)-3,4,5-trimethylpiperazin-1-yl)benzamide]"
29 nM,23 nM,1.6 nM,,"Cc1cc(C(=O)Nc2ccc(Cl)c(-c3nc4ccccc4[nH]3)c2)ccc1N1C[C@@H](C)N(C)[C@@H](C)C1 [Example 121, N-(3-(1H-benzo[d]imidazol-2-yl)-4-chlorophenyl)-3-methyl-4-((3S,5R)-3,4,5-trimethylpiperazin-1-yl)benzamide]"
29 nM,0.52 nM,0.39 nM,,"Cc1c(C(=O)Nc2ccc(Cl)c(-c3nc4ccccc4[nH]3)c2)ccc(N2C[C@@H](C)N(C)[C@@H](C)C2)c1F [Example 122, N-(3-(1H-benzo[d]imidazol-2-yl)-4-chlorophenyl)-2-methyl-3-fluoro-4-((3S,5R)-3,4,5-trimethylpiperazin-1-yl)benzamide]"

# — US10676468B2, “N-(3-heteroarylaryl)-4-arylarylcarboxamides and analogs as hedgehog pathway inhibitors and use thereof” (IMPACT Therapeutics, Inc., priority 2012, dated 2020)
